Patent publication US9572783B1, “Use of xanthophylls for the treatment of cancers” (priority 2015, dated 2017)

How the values were obtained:
Format in all cases: cell-based
M059K cell line = test: M059K cell number count after astaxanthin treatment; details: 100, 200 or 400 μM astaxanthin, 24 hours or 48 hours
Experimental: (§1) Human U87MG (ATCC, ATCC® HTB-14™) cell line was grown in DMEM medium supplemented with 10% fetal bovine serum at 37° C. in a humidified atmosphere at 5% CO2. M059K (ATCC, ATCC® CRL-2365™) and M059J (ATCC, ATCC® CRL-2366™) cell lines were grown in Dulbecco's modified Eagle medium (DMEM)-F12 supplemented with 10% fetal bovine serum at 37° C. in a humidified atmosphere at 5% CO2.
(§2) Astaxanthin was dissolved in dimethyl sulfoxide (DMSO) at concentration of 20 mM as stock solution.
(§3) The U87MG, M059K, and M059J cell lines were treated with DMSO or 100, 200 or 400 μM of astaxanthin for 24 hours or 48 hours and cell numbers were counted.

Human U87MG cell line [1] = test: U87MG cell number count after astaxanthin treatment; details: 100, 200 or 400 μM astaxanthin, 24 hours or 48 hours
Experimental: as §1, §2, §3

Human U87MG cell line [2] = test: MTT assay of U87MG cell viability; details: DMSO or different concentrations of astaxanthin
Experimental: (§4) Cells were washed with PBS after the treatment, followed by addition of 1 ml MTT (3-(4,5-cimethylthiazol-2-yl)-2,5-diphenyl tetrazolium bromide) solution (2 mg/ml in PBS) in each well. After incubation for 3 hours at 37° C., 2 ml of DMSO was added and cells were incubated in the dark for 30 minutes. Absorbance was measured at the wavelength of 570 nm (OD570).
as §1, §2, §3

[3] = tested on: Mouse adrenocortical Y1 cell line; test: MTT assay of Y1 cell viability; details: Y1 cells, 40 μM astaxanthin, 48 hours
Experimental: (§5) Mouse adrenocortical Y1 cell line (ATCC, ATCC® CCL-79™) was grown in Dulbecco's modified Eagle medium (DMEM)-F12 supplemented with 10% fetal bovine serum at 37° C. in a humidified atmosphere at 5% CO2.
(§6) Astaxanthin (Model NO: ATP-9601A; Yuan Yu Bio-Tech (Taiwan), Co., Ltd) was dissolved in dimethyl sulfoxide (DMSO) at concentration of 20 mM as stock solution.
(§7) The Y1 cells were incubated with DMSO or 40 μM of astaxanthin for 1, 2 or 3 days before analysis.
as §4

[4] = tested on: Mouse adrenocortical Y1 cell line; test: Y1 cell number count after astaxanthin treatment (growth curve); details: 40 μM astaxanthin, 1, 2 or 3 days of treatment
Experimental: as §5, §6, §7

Human U2OS cell line = test: U2OS cell number count after astaxanthin treatment; details: 100, 200 or 400 μM astaxanthin, 72 hours
Experimental: Human U2OS (ATCC, ATCC® HTB-96™) cell line was grown in DMEM medium supplemented with 10% fetal bovine serum at 37° C. in a humidified atmosphere at 5% CO2.
as §2
The U2OS cell line was treated with DMSO or 100, 200 or 400 μM of astaxanthin for 72 hours and cell numbers were counted.

CC1=C(/C=C/C(C)=C/C=C/C(C)=C/C=C/C=C(C)/C=C/C=C(C)/C=C/C2=C(C)C(=O)[C@@H](O)CC2(C)C)C(C)(C)C[C@H](O)C1=O [astaxanthin, Astaxanthin]
M059K cell growth (cell number) (M059K cell line): also inhibited M059K
U87MG cell growth (cell number) (Human U87MG cell line [1]): inhibited U87MG cell growth in a dose-dependent and time-dependent manner
viability of U87MG cells (MTT) (Human U87MG cell line [2]): reduced
OD570 (MTT, cell viability) compared with DMSO treated group [3]: reduced
number of Y1 cells compared with control (DMSO treated) group [4]: reduced
U2OS cell growth (cell number) (Human U2OS cell line): inhibited U2OS cell growth in a dose-dependent manner
